# Measurements reported in PubChem BioAssay (NCI).
#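 Results reflect a 48-hour exposure of cells in 96-well plates to compound at five concentrations. At the GI50, growth is halved. The concentration for full growth arrest is given as TGI.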
# Tests used:
# Assay in all cases: NCI tumour cell line growth inhibition, 48 h
# MALME-3M melanoma = system: MALME-3M melanoma
# RPMI-8226 leukemia = system: RPMI-8226 leukemia
# HCT-116 colon = system: HCT-116 colon
# NCI-H522 lung = system: NCI-H522 lung
# BT-549 breast = system: BT-549 breast
# RXF 393 renal = system: RXF 393 renal
# SK-OV-3 ovarian = system: SK-OV-3 ovarian
# MDA-MB-435 = system: MDA-MB-435
# SNB-75 CNS = system: SNB-75 CNS
# MCF7 breast = system: MCF7 breast
# NCI-H226 lung = system: NCI-H226 lung
# IGROV1 ovarian = system: IGROV1 ovarian
# SF-295 CNS = system: SF-295 CNS
# SK-MEL-28 melanoma = system: SK-MEL-28 melanoma
# OVCAR-5 ovarian = system: OVCAR-5 ovarian
# NCI-H460 lung = system: NCI-H460 lung
# SK-MEL-5 melanoma = system: SK-MEL-5 melanoma
# SF-268 CNS = system: SF-268 CNS
# OVCAR-3 ovarian = system: OVCAR-3 ovarian
# LOX IMVI melanoma = system: LOX IMVI melanoma
# M14 melanoma = system: M14 melanoma
# HCT-15 colon = system: HCT-15 colon
# DU-145 prostate = system: DU-145 prostate
# OVCAR-4 ovarian = system: OVCAR-4 ovarian
# UACC-62 melanoma = system: UACC-62 melanoma
# KM12 colon = system: KM12 colon
# CCRF-CEM leukemia = system: CCRF-CEM leukemia
# SNB-19 CNS = system: SNB-19 CNS
# A498 renal = system: A498 renal
# HCC-2998 colon = system: HCC-2998 colon
# HOP-92 NSCLC = system: HOP-92 NSCLC
# UO-31 renal = system: UO-31 renal
# HOP-62 NSCLC = system: HOP-62 NSCLC
# ACHN renal = system: ACHN renal
# OVCAR-8 ovarian = system: OVCAR-8 ovarian
# SN12C renal = system: SN12C renal
# A549 NSCLC = system: A549 NSCLC
# 786-0 renal = system: 786-0 renal
# SW-620 colon = system: SW-620 colon
# MOLT-4 leukemia = system: MOLT-4 leukemia
# HL-60(TB) leukemia = system: HL-60(TB) leukemia
# CAKI-1 renal = system: CAKI-1 renal
# U251 CNS = system: U251 CNS
# MDA-MB-231 breast = system: MDA-MB-231 breast
# SF-539 CNS = system: SF-539 CNS
# HT29 colon = system: HT29 colon
# PC-3 prostate = system: PC-3 prostate
# K-562 leukemia = system: K-562 leukemia
# EKVX NSCLC = system: EKVX NSCLC
# TK-10 renal = system: TK-10 renal
# HS 578T breast = system: HS 578T breast
# MDA-MB-468 breast = system: MDA-MB-468 breast
# UACC-257 melanoma = system: UACC-257 melanoma
# COLO 205 colon = system: COLO 205 colon
# SR leukemia = system: SR leukemia
# NCI-H23 lung = system: NCI-H23 lung
smiles,measurement,setting,value
Clc1cccc(-c2ccc(OCCCN3CCN(c4ccncc4)CC3)cc2)c1,GI50,MALME-3M melanoma,1.76 µM
same,TGI,MALME-3M melanoma,3.22 µM
same,GI50,RPMI-8226 leukemia,1.89 µM
same,TGI,RPMI-8226 leukemia,4.91 µM
same,GI50,HCT-116 colon,1.5 µM
same,TGI,HCT-116 colon,3.01 µM
same,GI50,NCI-H522 lung,1.87 µM
same,TGI,NCI-H522 lung,3.79 µM
same,GI50,BT-549 breast,2.5 µM
same,TGI,BT-549 breast,5.92 µM
same,GI50,RXF 393 renal,1.24 µM
same,TGI,RXF 393 renal,2.66 µM
same,GI50,SK-OV-3 ovarian,2.81 µM
same,TGI,SK-OV-3 ovarian,10.4 µM
same,GI50,MDA-MB-435,1.7 µM
same,TGI,MDA-MB-435,3.16 µM
same,GI50,SNB-75 CNS,1.87 µM
same,TGI,SNB-75 CNS,7.27 µM
same,GI50,MCF7 breast,1.5 µM
same,TGI,MCF7 breast,3.04 µM
same,GI50,NCI-H226 lung,3.51 µM
same,TGI,NCI-H226 lung,15.1 µM
same,GI50,IGROV1 ovarian,1.71 µM
same,TGI,IGROV1 ovarian,3.22 µM
same,GI50,SF-295 CNS,1.75 µM
same,TGI,SF-295 CNS,3.24 µM
same,GI50,SK-MEL-28 melanoma,1.82 µM
same,TGI,SK-MEL-28 melanoma,3.52 µM
same,GI50,OVCAR-5 ovarian,1.93 µM
same,TGI,OVCAR-5 ovarian,4.35 µM
same,GI50,NCI-H460 lung,1.74 µM
same,TGI,NCI-H460 lung,3.31 µM
same,GI50,SK-MEL-5 melanoma,1.65 µM
same,TGI,SK-MEL-5 melanoma,3.04 µM
same,GI50,SF-268 CNS,2.08 µM
same,TGI,SF-268 CNS,4.69 µM
same,GI50,OVCAR-3 ovarian,1.79 µM
same,TGI,OVCAR-3 ovarian,3.56 µM
same,GI50,LOX IMVI melanoma,1.62 µM
same,TGI,LOX IMVI melanoma,3.03 µM
same,GI50,M14 melanoma,1.76 µM
same,TGI,M14 melanoma,3.26 µM
same,GI50,HCT-15 colon,1.23 µM
same,TGI,HCT-15 colon,2.55 µM
same,GI50,DU-145 prostate,2.09 µM
same,TGI,DU-145 prostate,4.79 µM
same,GI50,OVCAR-4 ovarian,2.6 µM
same,TGI,OVCAR-4 ovarian,8.32 µM
same,GI50,UACC-62 melanoma,1.73 µM
same,TGI,UACC-62 melanoma,3.17 µM
same,GI50,KM12 colon,1.77 µM
same,TGI,KM12 colon,3.28 µM
same,GI50,CCRF-CEM leukemia,1.49 µM
same,TGI,CCRF-CEM leukemia,3.88 µM
same,GI50,SNB-19 CNS,1.94 µM
same,TGI,SNB-19 CNS,3.98 µM
same,GI50,A498 renal,5.64 µM
same,TGI,A498 renal,19.3 µM
same,GI50,HCC-2998 colon,1.82 µM
same,TGI,HCC-2998 colon,3.25 µM
same,GI50,HOP-92 NSCLC,1.28 µM
same,TGI,HOP-92 NSCLC,4.28 µM
same,GI50,UO-31 renal,1.65 µM
same,TGI,UO-31 renal,3.6 µM
same,GI50,HOP-62 NSCLC,1.67 µM
same,TGI,HOP-62 NSCLC,3.12 µM
same,GI50,ACHN renal,1.75 µM
same,TGI,ACHN renal,3.16 µM
same,GI50,OVCAR-8 ovarian,2.34 µM
same,TGI,OVCAR-8 ovarian,5.81 µM
same,GI50,SN12C renal,1.7 µM
same,TGI,SN12C renal,3.36 µM
same,GI50,A549 NSCLC,1.71 µM
same,TGI,A549 NSCLC,3.26 µM
same,GI50,786-0 renal,1.7 µM
same,TGI,786-0 renal,3.07 µM
same,GI50,SW-620 colon,1.7 µM
same,TGI,SW-620 colon,3.27 µM
same,GI50,MOLT-4 leukemia,2.04 µM
same,TGI,MOLT-4 leukemia,4.71 µM
same,GI50,HL-60(TB) leukemia,1.7 µM
same,TGI,HL-60(TB) leukemia,4.48 µM
same,GI50,CAKI-1 renal,1.67 µM
same,TGI,CAKI-1 renal,3.33 µM
same,GI50,U251 CNS,1.57 µM
same,TGI,U251 CNS,2.99 µM
same,GI50,MDA-MB-231 breast,1.57 µM
same,TGI,MDA-MB-231 breast,2.98 µM
same,GI50,SF-539 CNS,1.49 µM
same,TGI,SF-539 CNS,2.85 µM
same,GI50,HT29 colon,1.55 µM
same,TGI,HT29 colon,3.18 µM
same,GI50,PC-3 prostate,1.94 µM
same,TGI,PC-3 prostate,6.15 µM
same,GI50,K-562 leukemia,1.63 µM
same,TGI,K-562 leukemia,9.43 µM
same,GI50,EKVX NSCLC,1.85 µM
same,TGI,EKVX NSCLC,4.65 µM
same,GI50,TK-10 renal,2.73 µM
same,TGI,TK-10 renal,8.21 µM
same,GI50,HS 578T breast,1.96 µM
same,TGI,HS 578T breast,5.11 µM
same,GI50,MDA-MB-468 breast,1.66 µM
same,TGI,MDA-MB-468 breast,3.26 µM
same,GI50,UACC-257 melanoma,2.08 µM
same,TGI,UACC-257 melanoma,4.14 µM
same,GI50,COLO 205 colon,1.64 µM
same,TGI,COLO 205 colon,3.08 µM
same,GI50,SR leukemia,0.886 µM
same,TGI,SR leukemia,> 100 µM
same,GI50,NCI-H23 lung,2.07 µM
same,TGI,NCI-H23 lung,5.09 µM
